Literature values, collected in patent publication US20080119448A1, “Methods of treating an ocular allergy with low dose dexamethasone” (priority 2006, published 2008).

Settings: dexamethasone at 0.1%

- effect on intraocular pressure: increase in intraocular pressure
Compound: C[C@@H]1C[C@H]2[C@@H]3CCC4=CC(=O)C=C[C@]4(C)[C@@]3(F)[C@@H](O)C[C@]2(C)[C@@]1(O)C(=O)CO [dexamethasone]
